Reference: article PMC4130425, “Therapeutic drug monitoring of voriconazole: a case report of multiple drug interactions in a patient with an increased CYP2C19 activity” (AIDS Research and Therapy, 2014)
Where two headings read alike, the source gives them in different places.

What was measured:
[1] = human, in vivo
Procedure: The patient was genotyped for CYP2C19.
Time course of (A) voriconazole i. v. dosage administration, (B) comedication with esomeprazole or ranitidine and (C) associated antiretroviral therapy. Voriconazole plasma trough concentrations. qd: once a day; b.i.d.: Twice a day.
Ranitidine was replaced by esomeprazole 40 mg IV bid.

[2] = parameters: method as in PMID 22751544; settings: target trough range; cited from earlier work
CYP2C19 = biological target: T1, CYP2C19 (Homo sapiens, UniProt P33261); assay: CYP2C19 phenotyping with 2 mg omeprazole (omeprazole metabolic ratio); assay type: in vivo; settings: while on CYP2C19 inhibitor esomeprazole, cut-off = 5, showed decreased CYP2C19 activity
T1 construct: endogenous in cells; host or cells: patient in vivo (endogenous enzyme)
T1 sequence (P33261 whole entry): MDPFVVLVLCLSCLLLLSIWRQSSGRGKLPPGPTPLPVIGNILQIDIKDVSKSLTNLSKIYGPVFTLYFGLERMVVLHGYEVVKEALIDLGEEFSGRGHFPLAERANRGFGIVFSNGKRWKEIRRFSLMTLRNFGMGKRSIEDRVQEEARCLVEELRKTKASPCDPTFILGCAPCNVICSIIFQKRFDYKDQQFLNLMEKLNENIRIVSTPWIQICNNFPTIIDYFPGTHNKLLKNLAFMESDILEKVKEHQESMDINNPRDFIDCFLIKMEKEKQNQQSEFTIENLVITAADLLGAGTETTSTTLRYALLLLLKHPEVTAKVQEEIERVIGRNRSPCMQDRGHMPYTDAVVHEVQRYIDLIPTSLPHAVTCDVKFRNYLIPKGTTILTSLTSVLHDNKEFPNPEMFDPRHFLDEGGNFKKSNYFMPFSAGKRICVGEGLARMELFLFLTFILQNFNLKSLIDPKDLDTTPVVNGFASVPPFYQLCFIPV

C[C@@H](c1ncncc1F)[C@](O)(Cn1cncn1)c1ccc(F)cc1F [Voriconazole]
Voriconazole first trough concentration (C0) ([1]; female): < 1000 ng/mL
Voriconazole C0 versus therapeutic range [1]: below the therapeutic range
Voriconazole C0 versus therapeutic range ([1]; 2.5 mg/kg): within the therapeutic range
Voriconazole C0 therapeutic range [2]: 1000 to 5000 ng/mL

COc1ccc2[nH]c([S+]([O-])Cc3ncc(C)c(OC)c3C)nc2c1 (centres unmarked) [omeprazole]
omeprazole metabolic ratio (CYP2C19): 10.5
